Results as given in patent EP4186514A1, “PHARMACEUTICAL COMPOSITION FOR PREVENTING OR TREATING CHOLANGITIS OR LIVER DISEASE CAUSED BY CHOLANGITIS COMPRISING ADENOSINE DERIVATIVE” (Future Medicine Co., Ltd., priority 2021, dated 2023).

How the values were obtained:
A1 adenosine receptor = target: T1, A1 adenosine receptor (Homo sapiens, UniProt P30542); assay: Radioligand binding affinity, A1 adenosine receptor ([3H]CCPA, CHO cells); set-up: % hA1: dose or concentration left out as unconfirmed; settings: for % hA1: percentage inhibition of specific binding of [3H]CCPA; for Ki: nM ± SEM, read-out: Ki(nM) hA1
T1 construct: expressed in transfected cells; host or cells: CHO cells (ATCC No. CCL-61)
T1 sequence (P30542 1-326): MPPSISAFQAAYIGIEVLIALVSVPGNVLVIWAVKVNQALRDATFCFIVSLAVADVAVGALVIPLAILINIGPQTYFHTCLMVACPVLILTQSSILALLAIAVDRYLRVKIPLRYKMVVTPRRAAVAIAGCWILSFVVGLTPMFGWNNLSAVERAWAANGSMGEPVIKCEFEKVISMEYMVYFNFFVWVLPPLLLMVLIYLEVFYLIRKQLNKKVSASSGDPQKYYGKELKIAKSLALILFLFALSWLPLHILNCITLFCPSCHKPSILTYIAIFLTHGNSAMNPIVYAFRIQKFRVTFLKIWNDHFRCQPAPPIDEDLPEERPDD
Method: (§1) CHO cells (ATCC No. CCL-61), in which A1 and A3 adenosine receptors were expressed, were cultured in F-12 media (Gibco, U.S.A.) supplemented with 10% fetal bovine serum (FBS) and penicillin/streptomycin (100 units/ml and 100 g/ml), at 37° C. in a 5% CO2 atmosphere. […] Incubation for 1 hr in a 37° C. incubator was followed by rapid filtration in a vacuum using a cell collector (TOMTEC, U.S.A.). Subsequently, the test tubes were washed three times with 3 ml of the buffer before radioactivity was measured using a γ-counter. […] Ki for binding affinity was determined by subtracting the non-specific binding value from the total binding value. On the basis of the specific binding values, the samples were analyzed for binding affinity to various adenosine receptors.

A3 adenosine receptor = target: T2, A3 adenosine receptor (Homo sapiens, UniProt P0DMS8); assay: Radioligand binding affinity, A3 adenosine receptor ([125I]AB-MECA, CHO cells); set-up: % hA3: dose or concentration left out as unconfirmed; settings: for Ki: nM ± SEM, read-out: Ki(nM) hA3
T2 construct: expressed in transfected cells; host or cells: CHO cells (ATCC No. CCL-61)
T2 sequence (P0DMS8 1-318): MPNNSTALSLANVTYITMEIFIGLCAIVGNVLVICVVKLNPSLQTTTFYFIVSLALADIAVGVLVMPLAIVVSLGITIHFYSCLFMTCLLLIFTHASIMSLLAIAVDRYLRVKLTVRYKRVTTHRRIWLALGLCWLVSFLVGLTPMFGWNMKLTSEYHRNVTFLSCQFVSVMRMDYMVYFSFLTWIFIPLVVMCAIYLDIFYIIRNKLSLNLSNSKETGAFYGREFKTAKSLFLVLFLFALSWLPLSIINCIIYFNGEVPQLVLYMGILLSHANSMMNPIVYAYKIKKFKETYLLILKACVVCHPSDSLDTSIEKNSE
Method: as §1

[1] = system: TPA-induced inflammation of the mouse ear; assay: Anti-inflammatory activity, TPA-induced mouse ear inflammation; type: in vivo, ICR mice; settings: for anti-inflammatory activity: 0.5% in acetone, 20 µl, FIG. 11 (Exp. Ex. 12)
Method: The adenosine derivatives of the present invention were examined for anti-inflammatory activity in the following animal test. Seven-week-old male ICR mice were treated with TPA (12-O-tetradecanoylphorbol-13-acetate, 20 µl) in the right ear. […] Hydrocortisone was used at the same concentration as a control.
6 hrs after treatment with TPA, the mice were secondarily treated with the adenosine derivatives of the present invention. 24 hrs after TPA treatment, test animals were euthanized using a cervical dislocation method. Samples were obtained from the right ear using a 6 mm diameter punch. The activity was observed by measuring the ear sample using a microbalance. Percentages of inhibition were calculated using the following Equation 1. The compositions and amounts used in these experiments are summarized in Tables 14 to 17 and the anti-inflammatory activities thereof are shown in FIGS. 10 to 13. % Inhibition = (1−Rt.Ear(Test−Nontreated))/(Rt.Ear(TPAonly−Nontreated)) [formula]

A2A adenosine receptor = target: T3, A2A adenosine receptor (Homo sapiens, UniProt P29274); assay: Radioligand binding affinity, A2A adenosine receptor ([3H]CGS-21680, HEK 293 cell); settings: for % hA2A: percentage inhibition of specific binding of 10 µM; for Ki: nM ± SEM, read-out: Ki(nM) hA2A
T3 construct: expressed in transfected cells; host or cells: HEK 293 cell
T3 sequence (P29274 whole entry): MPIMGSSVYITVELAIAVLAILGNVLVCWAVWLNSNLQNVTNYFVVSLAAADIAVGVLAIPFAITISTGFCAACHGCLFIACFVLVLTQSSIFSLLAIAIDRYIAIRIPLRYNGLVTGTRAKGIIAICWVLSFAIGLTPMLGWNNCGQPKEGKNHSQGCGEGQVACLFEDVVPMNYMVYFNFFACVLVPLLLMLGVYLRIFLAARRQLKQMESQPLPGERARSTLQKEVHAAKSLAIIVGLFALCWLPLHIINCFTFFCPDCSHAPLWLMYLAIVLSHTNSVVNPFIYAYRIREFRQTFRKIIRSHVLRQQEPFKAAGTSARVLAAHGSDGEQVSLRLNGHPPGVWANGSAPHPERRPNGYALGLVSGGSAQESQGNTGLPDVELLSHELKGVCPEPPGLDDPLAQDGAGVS
Method: The adenosine derivatives of the present invention were assayed for binding affinity and selectivity for A1, A2A and A3 receptors among human adenosine receptor (hAR) as follows.
Adenosine deaminase was added alone or in combination with a radioactive ligand when cerebral meninges were incubated at 30° C. for 30 min. Each of the compounds synthesized in the examples was measured for IC50 at least 6 different concentrations, and the measurements were analyzed using SigmaPlot software to determine Ki values.

[2] = 0.5% in a mixture of distilled water and acetone (1:4), FIG. 12 (Exp. Ex. 13)
[3] = 0.5% in a mixture of DMSO and acetone (1:9), FIG. 13 (Exp. Ex. 14)

Compound | % hA1 (A1 adenosine receptor) [%] | Ki (A3 adenosine receptor) [nM] | percentages of inflammation inhibition [1, 2] [%] | % hA2A (A2A adenosine receptor) [%] | percentages of inflammation inhibition [1, 3] [%] | Ki (A1 adenosine receptor) [nM] | Ki (A2A adenosine receptor) [nM] | anti-inflammatory activity [1] | % hA3 (A3 adenosine receptor; percentage inhibition of specific binding) [%]
COc1ccccc1CNc1nc(Cl)nc2c1ncn2[C@@H]1SC[C@@H](O)[C@H]1O [Example 7, (2R,3R,4S)-2-(2-chloro-6-(2-methoxybenzylamino)-9H-purin-9-yl)tetrahydrothiophen-3,4-diol] | 9.4 | 19.9 ± 7.1 | 53 | 17.5 |  |  |  |  | 
O[C@@H]1[C@H](O)CO[C@H]1n1cnc2c(NCc3cccc(Br)c3)nc(Cl)nc21 [Example 15, (2R,3R,4R)-2-(6-(3-bromobenzylamino)-2-chloro-9H-purin-9-yl)tetrahydrofuran-3,4-diol] | 39.8 | 13 ± 6.9 |  | 22.8 | 59 |  |  |  | 
O[C@@H]1[C@H](O)CS[C@H]1n1cnc2c(NCc3cccc(Cl)c3)ncnc21 [Example 12, (2R,3R,4S)-2-(6-(3-chlorobenzylamino)-9H-purin-9-yl)tetrahydrothiophen-3,4-diol] |  | 1.5 ± 0.4 |  |  |  | 860 ± 210 | 440 ± 110 |  | 
O[C@@H]1[C@H](O)CS[C@H]1n1cnc2c(NCc3cccc(F)c3)nc(Cl)nc21 [Example 1, (2R,3R,4S)-2-(2-chloro-6-(3-fluorobenzylamino)-9H-purin-9-yl)tetrahydrothiophen-3,4-diol] | 19.8 | 7.4 ± 1.3 |  | 47.6 |  |  |  | increased | 
O[C@@H]1[C@H](O)CS[C@H]1n1cnc2c(NCc3cccc(F)c3)ncnc21 [Example 11, (2R,3R,4S)-2-(6-(3-fluorobenzylamino)-9H-purin-9-yl)tetrahydrothiophen-3,4-diol] |  | 7.3 ± 0.6 |  |  |  | 1430 ± 420 | 1260 ± 330 |  | 
COc1ccc(Cl)cc1CNc1nc(Cl)nc2c1ncn2[C@@H]1SC[C@@H](O)[C@H]1O [Example 6, (2R,3R,4S)-2-(2-chloro-6-(5-chloro-2-methoxybenzylamino)-9H-purin-9-yl)tetrahydrothiophen-3,4-diol] | 23.8 | 12.7 ± 3.7 | 34 |  |  |  | 4020 ± 1750 | increased | 
CNc1nc(Cl)nc2c1ncn2[C@@H]1SC[C@H](O)[C@@H]1O [Example 10, 2-(2-chloro-6-methylamino-purin-9-yl)tetrahydrothiophen-3,4-diol] | 55.4 ± 1.8 | 3.69 ± 0.25 |  | 45.0 ± 1.4 |  |  |  |  | 
O[C@@H]1[C@H](O)CS[C@H]1n1cnc2c(NCc3ccccc3Cl)nc(Cl)nc21 [Example 5, (2R,3R,4S)-2-(2-chloro-6-(2-chlorobenzylamino)-9H-purin-9-yl)tetrahydrothiophen-3,4-diol] | 12.8 | 25.8 ± 6.3 | 17 |  |  |  | 1600 ± 135 |  | 
O[C@@H]1[C@H](O)CS[C@H]1n1cnc2c(NCc3cccc4ccccc34)nc(Cl)nc21 [Example 8, (2R,3R,4S)-2-(2-chloro-6-(naphthalen-1-ylmethylamino)-9H-purin-9-yl)tetrahydrothiophen-3,4-diol] | 22.0 | 24.8 ± 8.1 |  | -8.3 |  |  |  |  | 
O[C@@H]1[C@H](O)CO[C@H]1n1cnc2c(NCc3cccc(I)c3)nc(Cl)nc21 [Example 16, (2R,3R,4R)-2-(2-chloro-6-(3-iodobenzylamino)-9H-purin-9-yl)tetrahydrofuran-3,4-diol] | 37.7 | 42.9 ± 8.9 |  | 28.6 | 79 |  |  |  | 
O[C@@H]1[C@H](O)CS[C@H]1n1cnc2c(NCc3cccc(Br)c3)nc(Cl)nc21 [Example 3, (2R,3R,4S)-2-(6-(3-bromobenzylamino)-2-chloro-9H-purin-9-yl)tetrahydrothiophen-3,4-diol] | 34.2 | 8.99 ± 5.17 |  | 18.4 |  |  |  |  | 
O[C@@H]1[C@H](O)CS[C@H]1n1cnc2c(NCc3cccc(Br)c3)ncnc21 [Example 13, (2R,3R,4S)-2-(6-(3-bromobenzylamino)-9H-purin-9-yl)tetrahydrothiophen-3,4-diol] |  | 6.8 ± 3.4 |  |  |  | 790 ± 190 | 420 ± 32 |  | 
O=C(O)c1cccc(CNc2nc(Cl)nc3c2ncn3[C@@H]2SC[C@@H](O)[C@H]2O)c1 [Example 9, 3-((2-chloro-9-((2R,3R,4S)-3,4-dihydroxytetrahydrothiophen-2-yl)-9H-purine-6-ylamino)methyl)benzoic acid] | 13.1 |  |  | -0.18 |  |  |  |  | 41.5
